Assay results published in publication PMC6022219, “Identification and Characterization of a Novel Palmitoyl Acyltransferase as a Druggable Rheostat of Dynamic Palmitoylome in L. donovani” (Frontiers in Cellular and Infection Microbiology, 2018).

What was measured:
LdPAT4-DHHC [1] = target: T1, LdPAT4-DHHC (Leishmania donovani, UniProt A0A3S7X1Q3); experiment: click-chemistry metabolic labelling of E. coli expressing LdPAT4-DHHC, Oregon Green […] fluorometry; assay type: cell-based; details: substrate Alk-C16 100 uM, induced E. coli Rosetta cells, 37 C, 6 h; 2-BMP concentration not stated
T1 construct: gene LdCL_280025100; DHHC domain only (423 bp), N-terminal GST tag (pGEX-4T-1, BamHI/SalI), E. coli Rosetta, ~40 kDa with tag
T1 sequence (A0A3S7X1Q3 268-407): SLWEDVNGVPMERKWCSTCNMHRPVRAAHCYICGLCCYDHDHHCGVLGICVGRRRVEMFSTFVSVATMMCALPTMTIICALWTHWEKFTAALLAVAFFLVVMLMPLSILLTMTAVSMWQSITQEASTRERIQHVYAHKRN

LdPAT4-DHHC [2] = target: T1, LdPAT4-DHHC; experiment: as above; assay type: cell-based; details: 100 uM Alk-C16, induced E. coli Rosetta cells, 37 C, 6 h; labelled compound (alkyne probe)

Compound	reduction in fluorescence intensity (LdPAT4-DHHC [1])	click-chemistry metabolic labelling of E. coli expressing LdPAT4-DHHC, Oregon Gr (LdPAT4-DHHC [2])
CCCCCCCCCCCCCCC(Br)C(=O)O (centres unmarked) [2-BMP]	following 2-BMP treatment of induced cells, reduction in fluorescence intensity was detected	
C#CCCCCCCCCCCCCCC(=O)O [Alk-C16]		predominant incorporation of palmitic acid analogs into transformed E. coli
